Source: patent US12441718B2, “Selective angiotensin II compounds” (VICORE PHARMA AB, priority 2021, dated 2025)
Several values for one entry are separate records, joined by “and”; a condition that tells them apart may be missing. Equal entries are not always repeated. Where two headings read alike, the source gives them in different places.

Experiments:
[1] = biological target: T1, CYP2C19 (Homo sapiens, UniProt P33261); assay: CYP inhibition in human liver microsomes (Eurofins ITEMG232); format: in vitro ADME; conditions: human, probe omeprazole, substrate omeprazole, read-out: CYP2C19 Inh %
T1 construct: isoform-specific substrates incubated with human liver microsomes; tissue Eurofins ITEMG232 (protocol number); host or cells: human liver microsomes

[2] = biological target: T2, human recombinant AT1 receptor (Homo sapiens, UniProt P30556); assay: Binding to AT1 receptor, radiometric scintillation assay (Eurofins ITEM24); conditions: test compounds at 1 and 10 μM, ligand 125I(sar1,Ile8)-AT-II; * rows = mean of runs
T2 construct: purchased Eurofins ITEM24 (protocol number)
T2 sequence (P30556 1-359): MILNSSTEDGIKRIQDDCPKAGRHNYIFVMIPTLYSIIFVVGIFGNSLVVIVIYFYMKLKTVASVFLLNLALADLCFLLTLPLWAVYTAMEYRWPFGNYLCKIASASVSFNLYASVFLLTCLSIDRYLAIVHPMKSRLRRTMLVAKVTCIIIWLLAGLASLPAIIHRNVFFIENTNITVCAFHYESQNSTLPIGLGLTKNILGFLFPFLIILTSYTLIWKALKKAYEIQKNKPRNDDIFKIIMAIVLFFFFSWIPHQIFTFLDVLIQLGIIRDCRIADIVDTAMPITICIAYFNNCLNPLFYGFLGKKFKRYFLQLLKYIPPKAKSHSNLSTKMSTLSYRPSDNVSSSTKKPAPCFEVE

[3] = biological target: T3, CYP1A2 (Homo sapiens, UniProt P05177); assay: in vitro; format: in vitro ADME; conditions: human, microsomes, human liver microsomes, substrate phenacetin, read-out: CYP1A2 Inh %
T3 construct: isoform-specific substrates incubated with human liver microsomes; tissue Eurofins ITEMG232 (protocol number); host or cells: human liver microsomes
Protocol: The following substrates were used; CYP1A phenacetin, CYP2B36 bupropion, CYP2C8 paclitaxel and amodiaquine, CYP2C9 diclofenac, CYP2C19 omeprazole, CYP2D6 dextromethorphan, CYP3A midazolam and testosterone.
At the end of the incubation, the formation of metabolite was monitored by HPLC-MS/MS as the peak area response.

[4] = Metabolic stability in pooled human liver microsomes; format: in vitro ADME; conditions: pooled human liver microsomes 0.5 mg/mL, 1 μM test compound, 37° C., * rows = mean of two runs; for half-life at 1 μM: human, pooled human liver microsomes
How it was run: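 Pooled human liver microsomes (0.5 mg/mL in PBS) preincubated ±1 mM NADPH at 37° C; test compound added at 10 min to 1 μM final. Samples at 0, 5, 15 and 60 min quenched in acetonitrile, parent quantified by LC-MS/MS against a standard curve (terfenadine internal standard). Initial metabolic rate calculated with and without NADPH.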

[5] = biological target: T4, CYP2D6 (Homo sapiens, UniProt P10635); assay: CYP inhibition in human liver microsomes (Eurofins ITEMG232); format: in vitro ADME; conditions: probe dextromethorphan, substrate dextromethorphan, read-out: CYP2D6 Inh %
T4 construct: isoform-specific substrates incubated with human liver microsomes; tissue Eurofins ITEMG232 (protocol number); host or cells: human liver microsomes

[6] = biological target: CYP2C9 (Homo sapiens, UniProt P11712); assay: as above; format: in vitro ADME; design: isoform-specific substrates incubated with human liver microsomes; tissue Eurofins ITEMG232 (protocol number); host or cells: human liver microsomes; conditions: human, probe diclofenac, substrate diclofenac, read-out: CYP2C9 Inh %
[7] = biological target: CYP3A4 (Homo sapiens, UniProt P08684); assay: CYP inhibition in human liver microsomes (Eurofins ITEMG232), midazolam substrate; format: in vitro ADME; design: isoform-specific substrates incubated with human liver microsomes; tissue Eurofins ITEMG232 (protocol number); host or cells: human liver microsomes; conditions: human, probe midazolam, read-out: CYP3A4 midazolam Inh %
[8] = biological target: T5, human recombinant AT2 receptor (Homo sapiens, UniProt P50052); assay: Binding to AT2 receptor, radiometric scintillation assay (Eurofins ITEM26); conditions: ligand 125I CGP 42112A, * rows = mean of runs; for Ki: seven-point dose-response curve; for IC50: test compounds at 1, 10, 100 and 1000 nM, read-out: AT2 GraFit IC50
T5 construct: purchased Eurofins ITEM26 (protocol number)
T5 sequence (P50052 1-363): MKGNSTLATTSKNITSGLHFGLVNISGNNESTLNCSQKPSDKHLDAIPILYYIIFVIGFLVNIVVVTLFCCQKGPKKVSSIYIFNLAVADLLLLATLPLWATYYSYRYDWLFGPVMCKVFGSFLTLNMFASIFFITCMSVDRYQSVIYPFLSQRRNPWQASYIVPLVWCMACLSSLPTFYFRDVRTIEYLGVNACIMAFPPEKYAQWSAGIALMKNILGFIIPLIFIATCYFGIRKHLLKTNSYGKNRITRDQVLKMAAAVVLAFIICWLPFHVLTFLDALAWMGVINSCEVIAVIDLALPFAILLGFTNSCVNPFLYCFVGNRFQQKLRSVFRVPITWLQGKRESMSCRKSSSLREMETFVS

[9] = biological target: T6, CYP2C8 (Homo sapiens, UniProt P10632); assay: CYP inhibition in human liver microsomes (Eurofins ITEMG232); format: in vitro ADME; conditions: human, probe paclitaxel and amodiaquine, substrate paclitaxel and amodiaquine, read-out: CYP2C8 Inh %
T6 construct: isoform-specific substrates incubated with human liver microsomes; tissue Eurofins ITEMG232 (protocol number); host or cells: human liver microsomes
T6 sequence (P10632 1-490): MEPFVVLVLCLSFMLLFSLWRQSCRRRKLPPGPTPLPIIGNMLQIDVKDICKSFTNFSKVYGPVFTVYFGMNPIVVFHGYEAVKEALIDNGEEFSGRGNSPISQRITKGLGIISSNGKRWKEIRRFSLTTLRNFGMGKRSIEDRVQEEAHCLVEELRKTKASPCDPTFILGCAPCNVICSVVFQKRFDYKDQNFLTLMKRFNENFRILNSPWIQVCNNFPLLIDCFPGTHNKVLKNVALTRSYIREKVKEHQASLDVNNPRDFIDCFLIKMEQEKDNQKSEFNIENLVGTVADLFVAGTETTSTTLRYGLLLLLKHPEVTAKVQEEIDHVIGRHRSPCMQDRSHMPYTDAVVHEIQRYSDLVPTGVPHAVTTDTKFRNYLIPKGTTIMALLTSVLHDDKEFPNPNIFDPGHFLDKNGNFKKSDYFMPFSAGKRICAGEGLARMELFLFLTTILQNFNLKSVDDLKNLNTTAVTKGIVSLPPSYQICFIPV

[10] = biological target: T7, CYP2B6 (Homo sapiens, UniProt P20813); assay: as above; format: in vitro ADME; conditions: probe bupropion, substrate bupropion, read-out: CYP2B6 Inh %
T7 construct: isoform-specific substrates incubated with human liver microsomes; tissue Eurofins ITEMG232 (protocol number); host or cells: human liver microsomes
T7 sequence (P20813 1-491): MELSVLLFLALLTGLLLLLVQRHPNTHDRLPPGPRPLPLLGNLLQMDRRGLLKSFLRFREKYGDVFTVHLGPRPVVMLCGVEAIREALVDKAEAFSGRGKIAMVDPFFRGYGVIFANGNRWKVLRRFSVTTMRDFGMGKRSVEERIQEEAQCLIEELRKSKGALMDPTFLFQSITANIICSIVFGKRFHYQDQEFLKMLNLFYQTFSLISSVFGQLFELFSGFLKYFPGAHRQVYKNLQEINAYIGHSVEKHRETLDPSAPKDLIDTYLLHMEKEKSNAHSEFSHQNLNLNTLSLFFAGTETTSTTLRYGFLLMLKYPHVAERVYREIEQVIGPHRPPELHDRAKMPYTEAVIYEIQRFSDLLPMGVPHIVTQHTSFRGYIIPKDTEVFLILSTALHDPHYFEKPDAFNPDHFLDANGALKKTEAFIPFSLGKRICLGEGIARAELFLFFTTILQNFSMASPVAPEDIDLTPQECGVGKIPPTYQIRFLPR

[11] = tested on: CYP3A4&5; assay: in vitro; conditions: human, human liver microsomes, probe testosterone;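 note: Read-out is the metabolite generated from the probe substrate, quantified as HPLC-MS/MS peak area once incubation ends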
[12] = with 1 mM NADPH, read-out: T1/2, + NaDPH
[13] = without NADPH, read-out: T1/2, no NaDPH

T3 sequence (P05177 whole entry, canonical isoform): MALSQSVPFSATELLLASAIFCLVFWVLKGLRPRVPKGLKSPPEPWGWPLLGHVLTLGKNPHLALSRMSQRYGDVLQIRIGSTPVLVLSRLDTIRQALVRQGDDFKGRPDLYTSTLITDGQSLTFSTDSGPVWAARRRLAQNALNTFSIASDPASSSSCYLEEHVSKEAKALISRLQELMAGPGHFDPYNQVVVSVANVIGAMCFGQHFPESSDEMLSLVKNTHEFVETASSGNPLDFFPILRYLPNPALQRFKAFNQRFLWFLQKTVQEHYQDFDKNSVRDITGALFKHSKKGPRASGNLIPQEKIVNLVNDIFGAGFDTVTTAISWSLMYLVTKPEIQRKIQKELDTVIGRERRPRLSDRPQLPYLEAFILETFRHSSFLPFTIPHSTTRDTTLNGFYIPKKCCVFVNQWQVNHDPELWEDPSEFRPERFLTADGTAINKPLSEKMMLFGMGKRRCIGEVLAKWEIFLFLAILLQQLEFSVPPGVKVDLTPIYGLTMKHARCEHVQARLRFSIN
Sequence of CYP2C9 (P11712 whole entry, canonical isoform): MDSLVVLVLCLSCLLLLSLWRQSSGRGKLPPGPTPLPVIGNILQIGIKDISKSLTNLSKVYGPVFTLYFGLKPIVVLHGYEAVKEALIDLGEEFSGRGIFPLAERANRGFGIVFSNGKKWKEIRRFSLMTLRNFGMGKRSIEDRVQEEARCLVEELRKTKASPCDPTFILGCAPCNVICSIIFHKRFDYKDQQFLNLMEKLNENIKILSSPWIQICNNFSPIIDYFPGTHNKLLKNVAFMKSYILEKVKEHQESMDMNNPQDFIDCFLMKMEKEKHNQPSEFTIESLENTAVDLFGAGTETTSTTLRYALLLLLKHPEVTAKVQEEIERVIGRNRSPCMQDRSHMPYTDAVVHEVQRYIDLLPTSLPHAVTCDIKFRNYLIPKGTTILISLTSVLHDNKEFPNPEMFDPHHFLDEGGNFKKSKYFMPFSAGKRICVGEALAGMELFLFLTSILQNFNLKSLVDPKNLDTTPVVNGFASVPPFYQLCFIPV
T1 sequence (P33261 whole entry, canonical isoform): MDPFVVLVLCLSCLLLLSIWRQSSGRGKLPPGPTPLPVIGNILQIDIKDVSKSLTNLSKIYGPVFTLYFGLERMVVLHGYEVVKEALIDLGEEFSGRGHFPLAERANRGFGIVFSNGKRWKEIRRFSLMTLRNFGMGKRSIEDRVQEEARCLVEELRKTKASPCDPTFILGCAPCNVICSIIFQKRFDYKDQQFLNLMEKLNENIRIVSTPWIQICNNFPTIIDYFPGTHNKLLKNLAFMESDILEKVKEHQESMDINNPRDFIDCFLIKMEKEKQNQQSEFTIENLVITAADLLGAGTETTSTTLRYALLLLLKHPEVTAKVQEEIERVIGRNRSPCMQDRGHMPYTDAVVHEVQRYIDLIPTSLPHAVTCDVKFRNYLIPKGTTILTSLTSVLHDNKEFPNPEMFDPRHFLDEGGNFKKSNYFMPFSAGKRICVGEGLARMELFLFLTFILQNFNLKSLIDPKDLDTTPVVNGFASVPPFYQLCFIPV
Sequence of CYP3A4 (P08684 whole entry, canonical isoform): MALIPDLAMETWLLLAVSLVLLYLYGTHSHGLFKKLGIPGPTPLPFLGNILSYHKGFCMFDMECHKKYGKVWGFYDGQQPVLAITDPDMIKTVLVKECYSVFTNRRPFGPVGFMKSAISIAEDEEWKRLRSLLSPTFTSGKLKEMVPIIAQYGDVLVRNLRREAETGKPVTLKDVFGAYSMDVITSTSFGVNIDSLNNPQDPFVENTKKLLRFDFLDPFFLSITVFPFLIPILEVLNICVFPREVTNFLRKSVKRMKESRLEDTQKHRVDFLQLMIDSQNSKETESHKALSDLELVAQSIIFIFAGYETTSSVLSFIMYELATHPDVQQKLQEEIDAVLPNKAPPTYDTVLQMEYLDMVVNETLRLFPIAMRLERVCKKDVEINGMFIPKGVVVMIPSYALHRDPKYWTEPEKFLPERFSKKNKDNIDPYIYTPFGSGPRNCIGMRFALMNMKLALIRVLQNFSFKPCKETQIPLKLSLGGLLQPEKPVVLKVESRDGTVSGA
T4 sequence (P10635 whole entry, canonical isoform): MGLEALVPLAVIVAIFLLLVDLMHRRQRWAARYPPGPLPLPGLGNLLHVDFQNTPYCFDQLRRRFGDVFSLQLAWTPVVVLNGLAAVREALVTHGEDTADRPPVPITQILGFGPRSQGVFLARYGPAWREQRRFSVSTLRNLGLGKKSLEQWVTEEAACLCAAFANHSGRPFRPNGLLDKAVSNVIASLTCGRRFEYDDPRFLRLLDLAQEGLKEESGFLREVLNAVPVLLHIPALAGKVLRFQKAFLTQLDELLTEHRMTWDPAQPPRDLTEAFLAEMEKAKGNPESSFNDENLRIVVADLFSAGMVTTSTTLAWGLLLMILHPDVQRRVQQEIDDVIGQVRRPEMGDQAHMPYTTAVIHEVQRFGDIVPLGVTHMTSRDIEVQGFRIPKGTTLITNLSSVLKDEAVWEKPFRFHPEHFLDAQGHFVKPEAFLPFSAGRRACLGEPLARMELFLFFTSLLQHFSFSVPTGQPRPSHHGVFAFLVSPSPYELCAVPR

## CC(C)Cc1ccc(S(=O)(=O)Nc2ncc(C(F)(F)F)cn2)c(-c2ccc(Cn3ccnc3C(C)(C)C)cc2)c1 [Example 4, 4′-((2-(tert-Butyl)-1H-imidazol-1-yl)methyl)-5-isobutyl-N-(5-(trifluoromethyl)pyrimidin-2-yl)-[1,1′-biphenyl]-2-sulfonamide]
[1]
  inhibition at 10 µM: 62.3%
[2]
  IC50: 6200 nM
[3]
  inhibition at 10 µM: 19.5%
[4]; [12]
  half-life at 1 μM: > 1 h
[4]; [13]
  half-life at 1 μM: > 1 h
[5]
  inhibition at 10 µM: 21.5%
[6]
  inhibition at 10 µM: 68.3%
[7]
  inhibition at 10 µM: 33.8%
[8]
  Ki: 6.18 nM
  IC50: 12.4 nM
[9]
  inhibition at 10 µM: 94.3%
[10]
  inhibition at 10 µM: 36.2%
[11]
  inhibition at 10 µM: 1.5%

## Cc1cnc(NS(=O)(=O)c2ccc(CC(C)C)cc2-c2ccc(Cn3ccnc3C(C)(C)C)cc2)nc1 [Example 20, 4′-((2-(tert-Butyl)-1H-imidazol-1-yl)methyl)-5-isobutyl-N-(5-methylpyrimidin-2-yl)-[1,1′-biphenyl]-2-sulfonamide]
[1]
  inhibition at 10 µM: 48%
[2]
  IC50: 22700 nM
[3]
  inhibition at 10 µM: 10.7%
[4]; [12]
  half-life at 1 μM: 0.667 h
[4]; [13]
  half-life at 1 μM: > 1 h
[5]
  inhibition at 10 µM: 20.1%
[6]
  inhibition at 10 µM: 69%
[7]
  inhibition at 10 µM: 47.5%
[8]
  Ki: 3.75 nM
  IC50: 7.5 nM
[9]
  inhibition at 10 µM: 40.9%
[10]
  inhibition at 10 µM: 12.5%
[11]
  inhibition at 10 µM: 28.1%

## CC(C)Cc1ccc(S(=O)(=O)Nc2ccsn2)c(-c2ccc(Cn3ccnc3C(C)(C)C)c(F)c2)c1 [Example 32, 4′-((2-(tert-Butyl)-1H-imidazol-1-yl)methyl)-3′-fluoro-5-isobutyl-N-(isothiazol-3-yl)-[1,1′-biphenyl]-2-sulfonamide]
[2]
  IC50: 14100 nM and 8500 nM and 11300 nM
[4]; [12]
  half-life at 1 μM: 0.233 h
[4]; [13]
  half-life at 1 μM: > 1 h
[4]; with 1 mM NADPH
  T1/2, + NaDPH: 0.217 h
[4]; with 1 mM NADPH, listed as Example 32*
  T1/2, + NaDPH: 0.225 h
[8]
  Ki: 0.92 nM
  IC50: 1.84 nM

## CCc1nccn1Cc1ccc(-c2cc(CC(C)C)sc2S(=O)(=O)Nc2ncccn2)cc1 [Example 51, 3-(4-((2-Ethyl-1H-imidazol-1-yl)methyl)phenyl)-5-isobutyl-N-(pyrimidin-2-yl)thiophene-2-sulfonamide]
[2]
  IC50: 13900 nM
[4]; [12]
  half-life at 1 μM: > 1 h
[4]; [13]
  half-life at 1 μM: > 1 h
[8]
  Ki: 0.64 nM
  IC50: 1.28 nM

## CC(C)Cc1ccc(S(=O)(=O)Nc2ncc(F)cn2)c(-c2ccc(Cn3ccnc3C(C)(C)C)c(F)c2)c1 [Example 9, 4′-((2-(tert-Butyl)-1H-imidazol-1-yl)methyl)-3′-fluoro-N-(5-fluoropyrimidin-2-yl)-5-isobutyl-[1,1′-biphenyl]-2-sulfonamide]
[1]
  inhibition at 10 µM: 35.8%
[2]
  IC50: 5200 nM
[3]
  inhibition at 10 µM: 48.6%
[4]; [12]
  half-life at 1 μM: > 1 h
[4]; [13]
  half-life at 1 μM: > 1 h
[5]
  inhibition at 10 µM: 16.4%
[6]
  inhibition at 10 µM: 73.1%
[7]
  inhibition at 10 µM: 7.7%
[8]
  Ki: 2.05 nM
  IC50: 4.11 nM
[9]
  inhibition at 10 µM: 91.6%
[10]
  inhibition at 10 µM: 30.4%
[11]
  inhibition at 10 µM: -14.9%

## CC(C)Cc1ccc(S(=O)(=O)Nc2ncc(C#N)cn2)c(-c2ccc(Cn3ccnc3C(C)(C)C)c(F)c2)c1 [Example 12, 4′-((2-(tert-Butyl)-1H-imidazol-1-yl)methyl)-N-(5-cyanopyrimidin-2-yl)-3′-fluoro-5-isobutyl-[1,1′-biphenyl]-2-sulfonamide]
[1]
  inhibition at 10 µM: 48.9%
[2]
  IC50: 1700 nM
[3]
  inhibition at 10 µM: 16.7%
[4]; [12]
  half-life at 1 μM: 0.967 h
[4]; [13]
  half-life at 1 μM: > 1 h
[5]
  inhibition at 10 µM: 18.4%
[6]
  inhibition at 10 µM: 82.3%
[7]
  inhibition at 10 µM: 14.6%
[8]
  Ki: 2.08 nM
  IC50: 4.17 nM
[9]
  inhibition at 10 µM: 89.6%
[10]
  inhibition at 10 µM: 35.8%
[11]
  inhibition at 10 µM: -41.8%

## Cc1nc(NS(=O)(=O)c2ccc(CC(C)C)cc2-c2ccc(Cn3ccnc3C(C)(C)C)c(F)c2)oc1C [Example 24, 4′-((2-(tert-Butyl)-1H-imidazol-1-yl)methyl)-N-(4,5-dimethyloxazol-2-yl)-3′-fluoro-5-isobutyl-[1,1′-biphenyl]-2-sulfonamide]
[1]
  inhibition at 10 µM: 57%
[2]
  IC50: 1100 nM
[3]
  inhibition at 10 µM: -19.4%
[4]; [12]
  half-life at 1 μM: 0.55 h
[4]; [13]
  half-life at 1 μM: > 1 h
[5]
  inhibition at 10 µM: 1.1%
[6]
  inhibition at 10 µM: 52.7%
[7]
  inhibition at 10 µM: 36%
[8]
  Ki: 0.72 nM
  IC50: 1.45 nM
[9]
  inhibition at 10 µM: 59.6%
[10]
  inhibition at 10 µM: 26.9%
[11]
  inhibition at 10 µM: 47.5%

## Cc1nccn1Cc1ccc(-c2cc(CC(C)C)sc2S(=O)(=O)Nc2ncccn2)cc1 [Example 50, 5-Isobutyl-3-(4-((2-methyl-1H-imidazol-1-yl)methyl)phenyl)-N-(pyrimidin-2-yl)thiophene-2-sulfonamide]
[2]
  IC50: 35100 nM
[4]; [12]
  half-life at 1 μM: > 1 h
[4]; [13]
  half-life at 1 μM: > 1 h
[8]
  Ki: 0.72 nM
  IC50: 1.44 nM
